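Assay format: 96-well plates, 48-hour exposure. GI50: concentration for 50% inhibition of growth. TGI marks complete inhibition of growth.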
Assays:
Assay in all cases: NCI anticancer screen, dose series, 48 h
HOP-62 NSCLC = test system: HOP-62 NSCLC
SNB-75 CNS = test system: SNB-75 CNS
NCI-H226 lung = test system: NCI-H226 lung
SR leukemia = test system: SR leukemia
COLO 205 colon = test system: COLO 205 colon
K-562 leukemia = test system: K-562 leukemia
786-0 renal = test system: 786-0 renal
EKVX NSCLC = test system: EKVX NSCLC
SK-OV-3 ovarian = test system: SK-OV-3 ovarian
NCI-H460 lung = test system: NCI-H460 lung
PC-3 prostate = test system: PC-3 prostate
T-47D breast = test system: T-47D breast

Compound: Cc1nc2ccccc2nc1NS(=O)(=O)c1ccc(N)cc1
- TGI (HOP-62 NSCLC): > 100 µM
- TGI (SNB-75 CNS): > 100 µM
- TGI (NCI-H226 lung): > 100 µM
- TGI (SR leukemia): > 100 µM
- TGI (COLO 205 colon): > 100 µM
- TGI (K-562 leukemia): > 100 µM
- TGI (786-0 renal): > 100 µM
- TGI (EKVX NSCLC): > 100 µM

Compound: O=S(=O)(CC1=NC2C=CC=CC2N=C1)NCc1ccccc1 (centres undefined)
- TGI (SK-OV-3 ovarian): > 100 µM
- TGI (HOP-62 NSCLC): > 100 µM
- TGI (SNB-75 CNS): > 100 µM
- TGI (NCI-H226 lung): > 100 µM
- TGI (COLO 205 colon): > 100 µM
- TGI (K-562 leukemia): > 100 µM
- TGI (786-0 renal): > 100 µM
- TGI (EKVX NSCLC): > 100 µM
- TGI (NCI-H460 lung): > 100 µM

Compound: N#Cc1cnn2c1n[n+]([O-])c1ccc(Cl)cc12
- TGI (PC-3 prostate): 32.1 µM
- TGI (T-47D breast): 37.6 µM
- TGI (SK-OV-3 ovarian): 23.8 µM
- TGI (HOP-62 NSCLC): 38.6 µM
- TGI (SNB-75 CNS): 15.4 µM
- TGI (NCI-H226 lung): 49.7 µM
- TGI (COLO 205 colon): 31.7 µM
- TGI (K-562 leukemia): 3.91 µM
- TGI (786-0 renal): > 100 µM
- TGI (EKVX NSCLC): 7.24 µM
- TGI (NCI-H460 lung): 26.5 µM

Compound: O=C1/C(=C/c2cccc([N+](=O)[O-])c2)COc2ccccc21
- TGI (SK-OV-3 ovarian): > 62.8 µM
- TGI (HOP-62 NSCLC): > 30.4 µM
- TGI (SNB-75 CNS): > 61.5 µM
- TGI (NCI-H226 lung): 22.6 µM
- TGI (COLO 205 colon): > 100 µM
- TGI (K-562 leukemia): > 28.5 µM
- TGI (786-0 renal): 3.16 µM
- TGI (EKVX NSCLC): > 92.2 µM
- TGI (NCI-H460 lung): > 25.2 µM

Compound: Cc1ccc(S(=O)(=O)N/N=C2\C(=O)C3CC2C(Cl)C3Cl)cc1 (centres undefined)
- TGI (SK-OV-3 ovarian): > 100 µM
- TGI (HOP-62 NSCLC): > 100 µM
- TGI (SNB-75 CNS): > 100 µM
- TGI (NCI-H226 lung): > 100 µM
- TGI (SR leukemia): > 100 µM
- TGI (COLO 205 colon): > 100 µM
- TGI (K-562 leukemia): > 100 µM
- TGI (786-0 renal): > 100 µM
- TGI (NCI-H460 lung): > 100 µM

Compound: COc1ccc(NS(=O)CCc2ccccc2)cc1 (centres undefined)
- TGI (HOP-62 NSCLC): > 100 µM
- TGI (SNB-75 CNS): > 100 µM
- TGI (NCI-H226 lung): > 100 µM
- TGI (SR leukemia): > 100 µM
- TGI (COLO 205 colon): > 100 µM
- TGI (K-562 leukemia): > 100 µM
- TGI (786-0 renal): > 100 µM
- TGI (EKVX NSCLC): > 100 µM
- TGI (NCI-H460 lung): > 100 µM

Compound: Fc1ccc(C(OCCN2CCC3CCC(C2)N3CCCc2ccccc2)c2ccc(F)cc2)cc1 (centres undefined)
- TGI (PC-3 prostate): 11.4 µM
- TGI (T-47D breast): 4.79 µM
- TGI (SK-OV-3 ovarian): 24.8 µM
- TGI (HOP-62 NSCLC): 23.3 µM
- TGI (SNB-75 CNS): 10.3 µM
- TGI (NCI-H226 lung): 15.1 µM
- TGI (COLO 205 colon): 2.67 µM
- TGI (K-562 leukemia): 5.8 µM
- TGI (786-0 renal): 5.57 µM
- TGI (EKVX NSCLC): 15.2 µM
- TGI (NCI-H460 lung): 7.51 µM

Compound: O=C1/C(=C/c2cccc([N+](=O)[O-])c2)CCCc2ccccc21
- TGI (PC-3 prostate): 23 µM
- TGI (SK-OV-3 ovarian): 63.8 µM
- TGI (HOP-62 NSCLC): 29.3 µM
- TGI (SNB-75 CNS): 29.9 µM
- TGI (NCI-H226 lung): 33.2 µM
- TGI (SR leukemia): 11 µM
- TGI (COLO 205 colon): 32.8 µM
- TGI (K-562 leukemia): 14.6 µM
- TGI (786-0 renal): 26.6 µM
- TGI (EKVX NSCLC): 32.5 µM
- TGI (NCI-H460 lung): 34.1 µM

Compound: C/C(C=O)=N\Nc1cc(C)c2ccccc2n1
- TGI (PC-3 prostate): 33 µM
- TGI (T-47D breast): 39.9 µM
- TGI (SK-OV-3 ovarian): 45 µM
- TGI (HOP-62 NSCLC): 29.2 µM
- TGI (SNB-75 CNS): 30.3 µM
- TGI (SR leukemia): 4.17 µM
- TGI (COLO 205 colon): 33.2 µM
- TGI (K-562 leukemia): 46.6 µM
- TGI (786-0 renal): 28.7 µM
- TGI (EKVX NSCLC): 33.7 µM

Compound: O=C(Cc1ccccc1)N/N=C(/CCN1CCCC1)CC(c1ccccc1)c1c(O)c2ccccc2oc1=O (centres undefined)
- TGI (PC-3 prostate): > 100 µM
- TGI (SK-OV-3 ovarian): > 100 µM
- TGI (SNB-75 CNS): > 100 µM
- TGI (NCI-H226 lung): > 100 µM
- TGI (SR leukemia): > 100 µM
- TGI (COLO 205 colon): 57.5 µM
- TGI (K-562 leukemia): > 100 µM
- TGI (786-0 renal): > 100 µM
- TGI (EKVX NSCLC): > 100 µM

Compound: COc1ccc2c(c1)c(Cc1c(C)n(C)c3ccc(OC)cc13)c(C)n2C
- TGI (SK-OV-3 ovarian): > 100 µM
- TGI (HOP-62 NSCLC): > 100 µM
- TGI (SNB-75 CNS): > 100 µM
- TGI (NCI-H226 lung): > 100 µM
- TGI (SR leukemia): > 100 µM
- TGI (COLO 205 colon): > 100 µM
- TGI (K-562 leukemia): > 100 µM
- TGI (786-0 renal): > 100 µM
- TGI (EKVX NSCLC): > 100 µM
- TGI (NCI-H460 lung): > 100 µM

Compound: CSc1nc(C)cc(Nc2ccc(O)c(CN3CCCCC3)c2)n1
- TGI (T-47D breast): > 100 µM
- TGI (SK-OV-3 ovarian): > 100 µM
- TGI (HOP-62 NSCLC): > 100 µM
- TGI (SNB-75 CNS): > 100 µM
- TGI (NCI-H226 lung): 84.3 µM
- TGI (SR leukemia): > 100 µM
- TGI (COLO 205 colon): > 100 µM
- TGI (K-562 leukemia): > 100 µM
- TGI (786-0 renal): 49.1 µM
- TGI (EKVX NSCLC): 88.7 µM

Compound: CCc1cc(Cc2cc(CC)c(NC(=O)C3=CC(=O)CC(c4ccc(OC)cc4)O3)c(CC)c2Cl)c(Cl)c(CC)c1NC(=O)C1=CC(=O)CC(c2ccc(OC)cc2)O1 (centres undefined)
- TGI (SK-OV-3 ovarian): 32.2 µM
- TGI (HOP-62 NSCLC): 46.5 µM
- TGI (SNB-75 CNS): 46.2 µM
- TGI (NCI-H226 lung): 47.5 µM
- TGI (SR leukemia): 59.2 µM
- TGI (COLO 205 colon): 31.6 µM
- TGI (K-562 leukemia): > 100 µM
- TGI (786-0 renal): 34.3 µM
- TGI (EKVX NSCLC): > 100 µM
- TGI (NCI-H460 lung): 32.6 µM

Compound: c1ccc(C2=NN(c3ccccc3)C3(S2)SC(c2ccccc2)(c2ccccc2)c2ccccc23)cc1 (centres undefined)
- TGI (SK-OV-3 ovarian): > 100 µM
- TGI (HOP-62 NSCLC): > 100 µM
- TGI (SNB-75 CNS): > 100 µM
- TGI (NCI-H226 lung): > 100 µM
- TGI (COLO 205 colon): > 100 µM
- TGI (K-562 leukemia): > 100 µM
- TGI (786-0 renal): > 100 µM
- TGI (EKVX NSCLC): > 100 µM
- TGI (NCI-H460 lung): > 100 µM

Compound: CC1CN=C(NCc2ccccc2)S1 (centres undefined)
- TGI (T-47D breast): > 100 µM
- TGI (SK-OV-3 ovarian): > 100 µM
- TGI (HOP-62 NSCLC): > 100 µM
- TGI (SNB-75 CNS): > 100 µM
- TGI (NCI-H226 lung): > 100 µM
- TGI (SR leukemia): > 100 µM
- TGI (K-562 leukemia): > 100 µM
- TGI (EKVX NSCLC): > 100 µM
- TGI (NCI-H460 lung): > 100 µM

Compound: Clc1cc(Cl)cc(N2N=C(c3cccc(Nc4ccncc4)c3)CC2c2ccccc2)c1 (centres undefined)
- GI50 (PC-3 prostate): 1.87 µM
- TGI (PC-3 prostate): 5.15 µM
- GI50 (T-47D breast): 1.73 µM
- TGI (T-47D breast): 4.2 µM
- GI50 (SK-OV-3 ovarian): 13.1 µM
- TGI (SK-OV-3 ovarian): 31.9 µM
- GI50 (SNB-75 CNS): 1.45 µM
- TGI (SNB-75 CNS): 5.38 µM
- GI50 (NCI-H226 lung): 14 µM
- TGI (NCI-H226 lung): 38.7 µM
- GI50 (EKVX NSCLC): 1.7 µM
- TGI (EKVX NSCLC): 4.23 µM
- GI50 (NCI-H460 lung): 1.8 µM
- TGI (NCI-H460 lung): 3.37 µM

Compound: CCn1c(=O)c2c(=O)[nH][nH]c2c2ccccc21
- TGI (PC-3 prostate): > 100 µM
- TGI (HOP-62 NSCLC): > 100 µM
- TGI (SNB-75 CNS): > 100 µM
- TGI (NCI-H226 lung): > 100 µM
- TGI (SR leukemia): > 100 µM
- TGI (COLO 205 colon): > 100 µM
- TGI (K-562 leukemia): > 100 µM
- TGI (786-0 renal): > 100 µM
- TGI (EKVX NSCLC): > 100 µM
- TGI (NCI-H460 lung): > 100 µM

Compound: Cc1[nH]c2ncn(/N=C/c3ccccc3)c(=N)c2c1Cc1ccccc1
- TGI (PC-3 prostate): > 100 µM
- TGI (T-47D breast): > 100 µM
- TGI (SK-OV-3 ovarian): > 100 µM
- TGI (HOP-62 NSCLC): > 100 µM
- TGI (SNB-75 CNS): > 100 µM
- TGI (NCI-H226 lung): > 100 µM
- TGI (COLO 205 colon): > 100 µM
- TGI (K-562 leukemia): > 100 µM
- TGI (786-0 renal): > 100 µM
- TGI (EKVX NSCLC): > 100 µM
- TGI (NCI-H460 lung): > 100 µM

Compound: CSC1=N/C(=C\c2cccs2)C(=O)N1CN1CCCCC1
- TGI (PC-3 prostate): > 100 µM
- TGI (SK-OV-3 ovarian): > 100 µM
- TGI (HOP-62 NSCLC): > 100 µM
- TGI (SNB-75 CNS): > 100 µM
- TGI (NCI-H226 lung): > 100 µM
- TGI (SR leukemia): > 100 µM
- TGI (COLO 205 colon): > 100 µM
- TGI (K-562 leukemia): > 100 µM
- TGI (786-0 renal): > 100 µM
- TGI (EKVX NSCLC): > 100 µM

Compound: O=c1c2cc(I)ccc2nc(-c2cccs2)n1Nc1ccccc1
- TGI (PC-3 prostate): > 100 µM
- TGI (SK-OV-3 ovarian): 74.4 µM
- TGI (HOP-62 NSCLC): 68.6 µM
- TGI (NCI-H226 lung): > 100 µM
- TGI (SR leukemia): > 100 µM
- TGI (COLO 205 colon): 3.66 µM
- GI50 (K-562 leukemia): 0.301 µM
- TGI (K-562 leukemia): 22.9 µM
- TGI (EKVX NSCLC): 58.4 µM
- TGI (NCI-H460 lung): > 100 µM

Compound: CCOc1ccc(NCC(=O)N2CC(=O)Nc3ccccc32)cc1
- TGI (SK-OV-3 ovarian): > 100 µM
- TGI (HOP-62 NSCLC): > 100 µM
- TGI (SNB-75 CNS): > 100 µM
- TGI (NCI-H226 lung): > 100 µM
- TGI (SR leukemia): > 100 µM
- TGI (COLO 205 colon): > 100 µM
- TGI (K-562 leukemia): > 100 µM
- TGI (786-0 renal): > 100 µM
- TGI (EKVX NSCLC): > 100 µM
- TGI (NCI-H460 lung): > 100 µM

— PubChem BioAssay (NCI)
